The test system of experiment [1] is 184 HMEC and ZNF217 immortalized HMEC. Description: Doxorubicin induced cell death in ZNF217 transduced versus parental HMEC. To be noted: 100 ng/ml doxorubicin; p=0.0146. It counts as cell-based. An excerpt:
In order to determine if ZNF217 could confer resistance to doxorubicin on primary mammary epithelial cells, the sensitivity of HMECs which had been previously immortalized by a ZNF217-HA expression construct (Nonet, G. H. et al., 2001, supra) were compared to parental 184 HMECs with finite life span. […] Thus, as well as promoting HMEC immortalization, ZNF217 expression protects HMEC against doxorubicin-induced apoptosis.

Experiment [2] concerns HBL100 cells. Description: Apoptosis assay, annexin V staining. It counts as cell-based, human. To be noted: for annexin staining: HBL100. Here is the method:
(§1) 1.5×10^5 of Hela cells, ZNF217-GFP transfected HeLa cells, HBL100 cells and ZNF217-GFP transfected HBL100 cells were set up in six well plates and cultured as described above. One the second day, the cells were treated with 100 ng/ml doxirubicin for 16 hours. The cell culture supernatants and cells were collected and washed twice with PBS, resuspended in 100 μl of binding buffer (10 mM HEPS, 140 mM NaCl and 2.5 mM CaCl2, pH 7.4). 5 μl of Annexin V antibody (Alexa Fluor 633 from Molecular Probes) was added and the cells were incubated at room temperature for 15 minutes. After the incubation, 400 μl of binding buffer were added and cell samples were analyzed by flow cytometry. A 633-nm wavelength laser was used to measure the apoptotic cell population. For imaging 1.5×10^4 cells were seeded in 4 well cover glass slides (Fisher). Doxorubicin treating cells 16 hours later, the cells were washed with PBS twice and 200 μl of binding buffer were added, staining process was as same as above and in the meantime, 0.5 μM of DAPI were added to satin the cell nucleus. After staining, the cells were washed twice again with PBS, 400 μl of Binding buffer were added. The apoptotic cells were imaged in Seize con-focal image system.

In experiment [3] the test system is HBL100 cells transfected with ZNF217-EGFP. In words: Apoptosis assay, annexin V staining. Format: cell-based, human. Conditions: for annexin staining: ZNF217-EGFP transfected HBL100. Here is the method:
as §1
ZNF217 silencing RNA (siRNA) constructs were introduced into HBL100 cells transfected with znf217 and the cells were subsequently treated with Doxorubicin.
The siRNA Dicer Generation kit from Gene Therapy System was used to generate a series of siRNAs. Approximately 30 different 22 bp siRNA sequences were generated, using the following primers: […]

Experiment [4] has as its system MCF7, 600MPE and HBL100 breast cancer cell lines. In words: Sensitivity of breast cancer cell lines to doxorubicin (cell death).
The mark [5] stands for this setting: increasing concentrations, in combination with doxorubicin.
Setting [6] is: not also treated with doxorubicin.

Regarding `COc1cccc2c1C(=O)c1c(O)c3c(c(O)c1C2=O)C[C@@](O)(C(=O)CO)C[C@@H]3O[C@H]1C[C@H](N)[C@H](O)[C@H](C)O1` [doxorubicin], the “less cell death in ZNF217 transduced cells than in control non-transduced 184 HMEC” value in experiment [1] came out at 2.5 fold. In addition, the “cells stained with annexin” value is “About 80%” in experiment [2] (control HBL100 cells, doxorubicin treatment) and “Less than 40%” in experiment [3] (ZNF217 transfected HBL100, doxorubicin treatment). The “cell death upon exposure to doxorubicin” value in experiment [4] (HBL100 compared with MCF7 and 600MPE) was “higher levels of cell death”. In experiment [4] (MCF7 and 600MPE versus HBL100, all wild type TP53), the “resistance to doxorubicin of cell lines with high relative ZNF217 expression versus HBL100” value was “three to five-fold more resistant”.

Take `CN1N=C(N)c2cn([C@@H]3O[C@H](COP(=O)(O)O)[C@@H](O)[C@H]3O)c3ncnc1c23` [triciribine phosphate]: the annexin staining entry in experiment [2] (setting [5]) was “increased annexin staining”; in experiment [2] (setting [6]), “did not display significant staining”; in experiment [3] (setting [5]), “increased annexin staining”; in experiment [3] (setting [6]), “did not display significant staining”. The cell death entry is given as “increased cell death” in experiment [2] (HBL100 not transfected (FIG. 11), increasing concentrations, in combination with Doxorubicon) and “increased cell death” in experiment [3] (HBL100 transfected with ZNF217-encoding constructs (FIG. 12), increasing concentrations, in combination with Doxorubicon).

(Values after US20070037202A1, “Potentiation of cancer therapies by ZNF217 inhibition” (Regents of the University of California, priority 2002, published 2007).)
